Measurements published in PMC10467108, “Of Seven New K^+ Channel Inhibitor Peptides of Centruroides bonito, α-KTx 2.24 Has a Picomolar Affinity for Kv1.2” (Toxins, 2023).
Where a SMILES comes first, the peptide text is derived from it. Bridges are numbered along the chain shown (N, C = ends).

What was measured:
hKv1.2 = target: T1, hKv1.2 (Homo sapiens, UniProt P16389); experiment: Whole-cell patch-clamp of Kv1.2 currents in transiently transfected CHO cells; type: cell-based; conditions: Hill fit of RCF vs toxin concentration, n ≥ 3
T1 construct: GFP (C); host or cells: CHO cells, transient transfection (Lipofectamine 2000)
T1 sequence (P16389 whole entry): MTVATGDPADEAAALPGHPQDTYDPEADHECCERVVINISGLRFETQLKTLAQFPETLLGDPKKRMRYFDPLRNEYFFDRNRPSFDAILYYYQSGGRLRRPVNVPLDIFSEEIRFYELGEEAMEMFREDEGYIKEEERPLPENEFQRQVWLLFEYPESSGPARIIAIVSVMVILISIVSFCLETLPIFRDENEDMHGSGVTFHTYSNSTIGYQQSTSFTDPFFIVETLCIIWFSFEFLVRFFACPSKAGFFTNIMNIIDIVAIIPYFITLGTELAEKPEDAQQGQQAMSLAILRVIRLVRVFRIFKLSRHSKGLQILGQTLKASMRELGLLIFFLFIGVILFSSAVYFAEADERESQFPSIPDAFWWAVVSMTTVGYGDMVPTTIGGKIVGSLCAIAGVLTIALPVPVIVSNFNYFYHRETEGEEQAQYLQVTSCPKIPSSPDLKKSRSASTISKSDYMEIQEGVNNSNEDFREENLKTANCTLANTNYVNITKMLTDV
Experimental: (§1) Macroscopic Kv1.1 and Kv1.2 currents were measured in transiently transfected CHO cells. For Kv1.3 current recording, human T lymphocytes were activated by Phytohemagglutinin A (PHA) to increase Kv1.3 channel expression, and micro-pipettes were filled with Ca^2+-free solution to prevent KCa3.1 channel activation. K^+ currents were evoked by applying 15-ms-long depolarization pulses to +50 mV from a holding potential of −120 mV except for Kv1.2, as it has highly variable activation kinetics; therefore, 15–500 ms-long pulses were applied to maximize the open probability of Kv1.2 channel. CboK peptide toxins were dissolved in a freshly prepared extracellular solution and applied to the whole-cell patch-clamped cells using a micro perfusion system at 200 μL/min flow rate.
CHO cells were transiently transfected by using Lipofectamine 2000 kit (Invitrogen, Carlsbad, CA, USA), as per the manufacturer’s protocol with vector pCMV6-AC-GFP (cat# RG211000 and RC222200; OriGene Technologies, Rockville, MD, USA) encoding hKv1.1 (hKCNA1 gene) or hKv1.2 (hKCNA2 gene) ion channels. Cells were grown under standard conditions in an incubator at 37 °C and 5% CO2 for 24 h. GFP-positive transfected cells were identified by utilizing a Nikon TMS fluorescence microscope (Nikon, Tokyo, Japan) using bandpass filters of 455–495 nm and 515–555 nm for excitation and emission, respectively.
(§2) The patch-clamp technique was used for measuring whole-cell currents in voltage-clamped mode using standard protocols. Electrophysiological recordings were acquired by using Multiclamp 700B amplifier connected to a personnel computer with an Axon Digidata1440 digitizer (Molecular Devices, Sunnyvale, CA, USA). Pipettes were pulled from GC150F-15 borosilicate capillaries (Harvard Apparatus, Kent, UK) having 3−5 MΩ tip resistance in the bath solution. All current recordings were carried out at room temperature (20−25 °C) and only those currents were recorded and subjected to analyses when the leak current at holding potential was <5% of peak current at the test potential. Current traces were lowpass-filtered by utilizing the built-in analog four-pole Bessel filters of the amplifiers and were sampled at 20 kHz which is at least twice the filter cut-off frequency. A gravity-driven perfusion system was used to perfuse the cells with control and test solutions and excess fluid was removed continuously through vacuum suction. The extracellular solution (bath solution) contained 145 mM NaCl, 5.5 mM glucose, 5 mM KCl, 2.5 mM CaCl2, 1 mM MgCl2, and 10 mM HEPES, having pH of 7.35 and an osmolarity between 302 and 308 mOsM/L. Toxins were dissolved in bath solution at different molar concentrations and supplemented with 0.1 mg/mL of bovine serum albumin BSA (Sigma-Aldrich, Budapest, Hungary). The intracellular solution (pipette filling) was comprised of 140 mM KF, 2 mM MgCl2, 1 mM CaCl2, 10 mM HEPES, and 11 mM EGTA, with a pH of 7.22 and an osmolarity of ~295 mOsM/L.
Generally, to evoke the Kv1.xcurrents, 15-ms-long depolarization pulses to +50 mV from a holding potential of −120 mV were applied, and the current traces were recorded after every 15 s. However, in the case of Kv1.2, due to its variable activation kinetics, the duration of the depolarization pulse was set between 15 and 500 ms to attain the saturated peak current.

Kv1.3 = target: T2, Kv1.3 (Homo sapiens, UniProt P22001); experiment: Whole-cell patch-clamp of Kv1.3 currents in PHA-activated human T lymphocytes; type: cell-based; conditions: for Hill coefficient H, Kv1.3 block: Hill fit of isochronal RCF (4 ms), n ≥ 3
T2 construct: endogenous in cells
T2 sequence (P22001 whole entry): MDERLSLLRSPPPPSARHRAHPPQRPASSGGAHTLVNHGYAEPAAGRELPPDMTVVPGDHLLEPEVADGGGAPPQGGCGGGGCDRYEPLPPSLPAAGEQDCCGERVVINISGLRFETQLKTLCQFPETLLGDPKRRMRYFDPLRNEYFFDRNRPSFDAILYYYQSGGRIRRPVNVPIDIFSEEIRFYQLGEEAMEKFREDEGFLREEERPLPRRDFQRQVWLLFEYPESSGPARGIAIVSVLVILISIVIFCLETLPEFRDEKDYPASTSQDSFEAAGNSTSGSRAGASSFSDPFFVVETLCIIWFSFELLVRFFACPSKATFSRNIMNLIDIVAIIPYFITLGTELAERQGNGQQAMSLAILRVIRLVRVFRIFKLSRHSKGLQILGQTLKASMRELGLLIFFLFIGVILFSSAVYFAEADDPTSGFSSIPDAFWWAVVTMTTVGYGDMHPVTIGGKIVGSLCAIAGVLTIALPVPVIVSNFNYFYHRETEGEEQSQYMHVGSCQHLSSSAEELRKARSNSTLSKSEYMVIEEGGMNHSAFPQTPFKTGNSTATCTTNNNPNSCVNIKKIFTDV
Experimental: as §1
Isochronal RCF data points obtained this way (isochronal RCF = I4ms/I4ms,0 where I4ms,0 and I4ms are the currents at 4 ms time point in the absence and presence of CboK peptides, respectively) at different toxin concentrations were fitted with the Hill equation to obtain concentration–response curves as shown in Figure 6H.
Human peripheral venous blood was acquired from anonymous healthy volunteers from the blood bank. Blood samples were collected by having approval from the Ethical Committee of the Hungarian Medical Research Council (36255-6/2017/EKU). PBMCs were separated by Histopaque 1077 (Sigma-Aldrich, Budapest, Hungary) separation technique, and isolated cells, at the density of 5 × 10^5 cells, were cultured in RPMI 1640 media (Gibco, Grand Island, NY, USA) supplemented with 10% FBS (Sigma-Aldrich, Budapest, Hungary), 2 mM L-glutamine, […], and […] penicillin in a humidified incubator at 37 °C and 5% CO2 for 3–6 days. A measure of 2, 5, or 10 μg/mL of Phytohemagglutinin A (PHA) (Sigma-Aldrich, Budapest, Hungary) was added in cultured cells to activate the PBMCs and upregulate the Kv1.3 expression.
as §2, with “suction.” for “suction. The extracellular solution (bath solution) contained 145 mM NaCl, 5.5 mM glucose, 5 mM KCl, 2.5 mM CaCl2, 1 mM MgCl2, and 10 mM HEPES, having pH of 7.35 and an osmolarity between 302 and 308 mOsM/L. Toxins were dissolved in bath solution at different molar concentrations and supplemented with 0.1 mg/mL of bovine serum albumin BSA (Sigma-Aldrich, Budapest, Hungary). The intracellular solution (pipette filling) was comprised of 140 mM KF, 2 mM MgCl2, 1 mM CaCl2, 10 mM HEPES, and 11 mM EGTA, with a pH of 7.22 and an osmolarity of ~295 mOsM/L.”

Structure (SMILES)	Hill coefficient H, Kv1.2 block (hKv1.2)	time for onset of steady-state block and complete recovery, Kv1.3 (Kv1.3; 5, 15, 40, 100, 350 nM toxin)	Hill coefficient H, Kv1.3 block (Kv1.3)	reversibility of Kv1.3 block (Kv1.3; wash with toxin-free external solution)
CC[C@H](C)[C@H](NC(=O)[C@@H](N)[C@@H](C)O)C(=O)N[C@H](C(=O)N[C@@H](CC(N)=O)C(=O)N[C@H](C(=O)N[C@@H](CCCCN)C(=O)N[C@H]1CSSC[C@@H]2NC(=O)[C@H](CCCCN)NC(=O)[C@H](CCC(=O)O)NC(=O)CNC(=O)[C@H](C)NC(=O)[C@H](Cc3c[nH]cn3)NC(=O)[C@@H]3CCCN3C(=O)CNC(=O)[C@H](Cc3ccc(O)cc3)NC(=O)[C@H](CC(C)C)NC(=O)[C@H](CC(=O)O)NC(=O)[C@H](CCCCN)NC(=O)[C@@H]3CSSC[C@@H](C(=O)N[C@@H](Cc4ccc(O)cc4)C(=O)N[C@@H](CCCCN)C(=O)N[C@H](C(=O)O)C(C)C)NC(=O)[C@H](CCCCN)NC(=O)[C@H](CSSC[C@H](NC(=O)[C@H](CCC(N)=O)NC(=O)[C@H](CCCCN)NC(=O)[C@@H]4CCCN4C(=O)[C@H](CO)NC(=O)[C@H]([C@@H](C)O)NC1=O)C(=O)N[C@@H](CC(C)C)C(=O)N[C@@H](CCCCN)C(=O)N1CCC[C@H]1C(=O)N3)NC(=O)[C@H](CCCCN)NC(=O)CNC(=O)[C@H](CC(N)=O)NC(=O)[C@H](CCSC)NC2=O)C(C)C)[C@@H](C)CC [CboK3] (H-TIINVKCTSPKQCLKPCKDLYGPHAGEKCMNGKCKCYKV-OH; disulfide 7-29, 13-34, 17-36)	1.2	~ 1 min	0.96	fully reversible
CC[C@H](C)[C@H](NC(=O)[C@H](Cc1ccccc1)NC(=O)[C@@H](N)[C@@H](C)O)C(=O)N[C@@H](CC(N)=O)C(=O)N[C@H](C(=O)N[C@@H](CCCCN)C(=O)N[C@H]1CSSC[C@@H]2NC(=O)[C@H](CCCCN)NC(=O)[C@H](CCC(=O)O)NC(=O)CNC(=O)[C@H](C)NC(=O)[C@H](Cc3c[nH]cn3)NC(=O)[C@@H]3CCCN3C(=O)CNC(=O)[C@H](Cc3ccc(O)cc3)NC(=O)[C@H](CC(C)C)NC(=O)[C@H](CC(=O)O)NC(=O)[C@H](CCCCN)NC(=O)[C@@H]3CSSC[C@@H](C(=O)N[C@@H](Cc4ccc(O)cc4)C(=O)N[C@@H](CCCCN)C(=O)N[C@H](C(=O)O)C(C)C)NC(=O)[C@H](CCCCN)NC(=O)[C@H](CSSC[C@H](NC(=O)[C@H](CCC(N)=O)NC(=O)[C@H](CCCCN)NC(=O)[C@@H]4CCCN4C(=O)[C@H](CO)NC(=O)[C@H]([C@@H](C)O)NC1=O)C(=O)N[C@@H](CC(C)C)C(=O)N[C@@H](CCCCN)C(=O)N1CCC[C@H]1C(=O)N3)NC(=O)[C@H](CCCCN)NC(=O)CNC(=O)[C@H](CC(N)=O)NC(=O)[C@H](CCSC)NC2=O)C(C)C [CboK7] (H-TFINVKCTSPKQCLKPCKDLYGPHAGEKCMNGKCKCYKV-OH; disulfide 7-29, 13-34, 17-36)	1.3	–	0.8	–
